In brackets after ≈: the same amount, converted by molar mass.

The term IC50 denotes the concentration needed to halve the response being measured. Lower therefore signals inhibition by little substance.

The first experiment has as its system Vero. The experiment is described as follows: Concentration required for 50% inhibition of herpes simplex virus 2 (HSV-2) using standard plaque reduction assay in vero cells. In kind it is functional, cell-based. As to conditions: Chlorocebus sabaeus.
Regarding `C[C@]12CC[C@]3(C1)[C@H](CC2=O)C[C@@H](OC(=O)c1ccccc1)[C@H]1[C@](C)(C(=O)O)CCC[C@@]13C` [SCOPADULCIC ACID B], the half-maximal inhibitory concentration (IC50) came out at 0.2 µg/mL (≈ 0.456 µM).

System in another experiment: not listed separately
Kind of experiment: Concentration required for 50% inhibition of herpes simplex virus 2(HSV-2) using standard plaque reduction assay in vero cells. The settings on record: Chlorocebus sabaeus. Type of experiment: functional, cell-based. (In general: In a plaque reduction assay, fewer plaques than in the control indicate reduced infectivity or spread.)
The compound `CC(C)c1ccc2c(c1)CC[C@H]1C(=O)[C@@H](O)CC[C@]21C` had an IC50 of 8 µg/mL (≈ 29.4 µM). With `CC(C)c1ccc2c(c1)CC[C@H]1[C@](C)(Sc3ccccn3)CCC[C@]21C`, it took 20 µg/mL (≈ 54.7 µM) to reach half-maximal inhibition (IC50). Consider `C=C1[C@@H](O)CC[C@]2(C)c3ccc(C(C)C)cc3CC[C@@H]12`, for which half-maximal inhibition (IC50) required 3 µg/mL (≈ 11.1 µM).

Compound `C[C@@]1(CO)[C@H](O)CC[C@@]2(C)[C@H]1CCC1C[C@@H]3C[C@@]12CC[C@]3(O)CO` (stereo partly drawn) yielded an IC50 of 0.2 µg/mL (≈ 0.591 µM). Consider `C=C1CCC[C@]2(C)c3ccc(C(C)C)cc3CC[C@@H]12`, for which the IC50 came to 10 µg/mL (≈ 39.3 µM).

As to `CC(C)c1ccc2c(c1)CC[C@H]1[C@@H](CO)[C@@H](O)CC[C@]21C`, inhibition was half-maximal at 20 µg/mL (≈ 69.3 µM) (IC50). `CC(C)c1ccc2c(c1)CC[C@H]1[C@]3(CCC[C@]21C)CO3`: the IC50 was found to be 20 µg/mL (≈ 74 µM). Consider `CC(C)c1ccc2c(c1)CC[C@H]1[C@@H](CO)CCC[C@]21C`, for which the IC50 is 9 µg/mL (≈ 33 µM). The same measure, in the same setting: as for `CC(C)c1ccc2c(c1)CC[C@H]1C(=O)CCC[C@]21C`, the figure is 14 µg/mL (≈ 54.6 µM); as for `CC(C)c1ccc2c(c1)CC[C@H]1[C@@](O)(CO)[C@@H](O)CC[C@]21C`, 9 µg/mL (≈ 29.6 µM). As for `CC(C)c1ccc2c(c1)CC[C@H]1[C@@](O)(CO)CCC[C@]21C`, the IC50 came out at 14 µg/mL (≈ 48.5 µM). The compound `CC(C)c1ccc2c(c1)CC[C@H]1[C@@H](O)CCC[C@]21C` registered an IC50 of 15 µg/mL (≈ 58 µM).

As for `CC(C)c1ccc2c(c1)CC[C@H]1[C@H](O)[C@@H](O)CC[C@]21C`, the IC50 came out at 19 µg/mL (≈ 69.2 µM). Regarding `Nc1nc2c(ncn2COCCO)c(=O)[nH]1` [ACYCLOVIR], half-maximal inhibition (IC50) was put at 1.5 µg/mL (≈ 6.66 µM). For `CC(C)c1ccc2c(c1)CC[C@H]1[C@](C)(C(=O)O)CCC[C@]21C` [DEHYDROABIETIC ACID], the IC50 worked out at 20 µg/mL (≈ 66.6 µM). The compound `COC(=O)[C@]1(C)CCC[C@]2(C)c3ccc(C(C)C)cc3CC[C@@H]12` [METHYL DEHYDROABIETATE] gave a half-maximal inhibitory concentration (IC50) of 20 µg/mL (≈ 63.6 µM). For the compound `CC(C)c1ccc2c(c1)CC[C@H]1[C@](C)(CO)CCC[C@]21C` [POMIFERIN A], the IC50 came out at 17 µg/mL (≈ 59.3 µM).

For the origin of these results see ChEMBL document CHEMBL1127281, “Synthesis and anti-herpes activity of some a-ring functionalized dehydroabietane derivatives” (Bioorg Med Chem Lett, 1994).
